Counter-ions that a name gives are not always drawn. Like-named read-outs stand apart in the source and are kept apart here.
How the values were obtained:
DU4475 = experiment: Cell proliferation assay, DU4475; format: cell-based; conditions: Homo sapiens, DU-4475; DU4475, type Lu, 72 h
Procedure: (§1) The cells were seeded at 5×10^3 to 1.5×10^4 cells (depending on cell type) in each well of a 96-well plate in 100 μL of fresh culture medium and adherent cells were allowed to attach overnight. The stock solutions of the compounds were diluted in cell culture medium to obtain eight concentrations of each drug, ranging from 1 nM to 30 μM and DMSO at less than 1% v/v was used as a negative control. The resulting drug solutions were transferred onto the cells. After 72 h of treatment, 20 μl of CellTiter 96® AQueous reagent was added into each well of the 96-well assay plates and the plate was incubated at 37° C. for 1-4 hours in a humidified, 5% CO2 atmosphere. Then the absorbance of each well was recorded at 490 nm using a 96-well plate reader. In most cases, the assay was performed in triplicate and the results were presented as half maximal inhibitory concentration (IC50).

MDA-MB-468 = experiment: Cell proliferation assay, MDA-MB-468; format: cell-based; conditions: Homo sapiens; MDA-MB-468, after 72 hours
Procedure: as §1

MCF12A = experiment: Cell proliferation assay, MCF12A; format: cell-based; conditions: Homo sapiens, MCF-12A, type BaB, 72 h
Procedure: as §1

[1] = test system: MDA-MB-468 TNBC Basal A cells; experiment: Nuclear localization of FOXO3a and IκB, MDA-MB-468; format: cell-based; conditions: MDA-MB-468, 1 μM, 24 hours
Procedure: MDA-MB-468 TNBC Basal A and BT-20 TNBC Basal B cells were exposed to DMSO or 1 μM Compound 1-3 for 24 hours and then stained for FOXO3a or IκB with or without DAPI nuclear stain. The stained cells were examined for nuclear localization.

MDA-MB-157 = experiment: Cell proliferation assay, MDA-MB-157; format: cell-based; conditions: Homo sapiens; MDA-MB-157, type BaB, 72 h
Procedure: as §1

[2] = test system: MDA-MB-468 triple negative breast cancer cells; conditions: oral, day 33 post inoculation
Procedure: MDA-MB-468 (ATCC #HTB-132)triple negative breast cancer cells were obtained from ATCC. These cells were grown in Leibovitz's L-15 medium supplemented with 10% fetal calf serum (FCS), 1% penicillin and streptomycin, and 2 mM L-glutamine. Cells were sub-cultured by dilution at a ratio of 1:3. Fifty (50) female SCID mice (Charles River Labs), aged 5 to 6 weeks, with a mean pre-treatment body weight of 19.2 grams were used. SCID mice were inoculated s.c. in the left flank with 5×10^6 MDA-MB-468 cells. When the tumors reached a mean size of between 100 and 200 mm^3, mice were randomly and prospectively divided into a vehicle control group of ten (10) mice and five treatment groups of eight (8) mice per group.
All administrations were via the oral route. Animals were fed with sterile Labdiet® 5053 (pre-sterilized) rodent chow and sterile water was provided ad libitum. Tumors were measured once every two days with micro-calipers, and tumor volume was calculated as (length×width×width)/2. All animals were weighed every day in order to assess differences in weight among treatment groups and monitor wellness of animals. […] Any animals with a tumor over 1500 mm^3 in volume were also euthanized. Survival was recorded daily. […] Statistical differences between treatment groups were determined using Mann-Whitney Rank Sum or ANOVA tests with a critical value of 0.05.

HS578T cells [3] = experiment: Anti-apoptosis and cell cycle proteins immunoblot, HS578T; format: cell-based; conditions: increasing concentrations, 24 hours
MCF10A = experiment: Cell proliferation assay, MCF10A; format: cell-based; conditions: Homo sapiens, MCF-10A, type BaB, 72 h
Procedure: as §1

HS578T cells [4] = experiment: Long-term growth assay, HS578T; format: cell-based; conditions: 1 μM, 7 days, crystal violet
Excerpt: At the end of the assay, media was removed from the cells and the remaining cells were stained with crystal violet.

HCC-202 = experiment: Cell proliferation assay, HCC-202; format: cell-based; conditions: HCC202; HCC-202, type Lu/HER+, 72 h
Procedure: as §1

HCC-1143 = experiment: Cell proliferation assay, HCC-1143; format: cell-based; conditions: Homo sapiens, HCC1143; HCC-1143, type BaA, 72 h
Procedure: as §1

HS578T TNBC cells = experiment: Apoptosis marker immunoblot, HS578T; format: cell-based; conditions: 0 to 10 μM, 24 hours
Procedure: MDA-MB-468 TNBC, DU4475 and HS578T TNBC cells were exposed to concentrations of Compound 1-3 ranging from 0 to 10 μM for 24 hours. After 24 hours, whole protein cell extracts were run on immunoblots and were exposed to antibodies against the proteins indicated in FIGS. 2A-2C.

UACC812 = experiment: Cell proliferation assay, UACC812; format: cell-based; conditions: Homo sapiens, UACC-812; UACC812, type Lu, 72 h
Procedure: as §1

Zucker rats = format: in vivo; conditions: orally administered at 0.625, 1.25 and 2.5 mg/kg
Procedure: For novel object recognition test, Zucker rats were placed into a test chamber (dimension 26″×18″×18″; L×W×H). Food and water was not be permitted during the test. The test had 3 phases: a) Familiarisation phase: Rats were singly placed in test chamber and allowed to freely explore for 60 min. The distance travelled by the animal during this phase was recorded using tracking software (AnyMaze system). The purpose of this phase was to familiarise the animals to the test apparatus. […] The distance travelled by the animal during this sample phase was automatically recorded, as well as the time spent by the animal interacting with the novel objects, using a tracking software system and visual observation. […] The distance travelled by the animal during the test phase was automatically recorded, as well as the time spent by the animal interacting with the novel and familiar objects, using a tracking software system and visual observation. Object interaction scores during both the sample and test phase were independently recorded by 2 observers. The final score represents the difference score between each reading. […]

SMILES	IC50 (DU4475)	IC50 (MDA-MB-468)	IC50 (MCF12A)	localization of FOXO3a and IκB [1]	IC50 (MDA-MB-157)	inhibition of tumor growth compared with vehicle-treated animals ([2]; 5 mg/kg Monday, Wednesday, Friday)	inhibition of tumor growth compared with vehicle-treated animals ([2]; 25 mg/kg Monday, Thursday regimen)	MCL-1 protein level (HS578T cells [3])	IC50 (MCF10A)	long-term growth (HS578T cells [4])	IC50 (HCC-202)	IC50 (HCC-1143)	apoptosis (cleaved PARP, cleaved caspase 3) (HS578T TNBC cells)	IC50 (UACC812)	novel object recognition (object preference) (Zucker rats)
O=C(/C=C\n1cnc(-c2cc(C(F)(F)F)cc(C(F)(F)F)c2)n1)NNc1cnccn1 [Compound I-3, (Z)-3-(3-(3,5-bis(trifluoromethyl)phenyl)-1H-1,2,4-triazol-1-yl)-N′-(pyrazin-2-yl)acrylohydrazide]	13 nM	10 nM	150 nM	both FOXO3a and IκB were localized in the cell nucleus	1300 nM	approximately 60%	~100%	a reduction in MCL-1 is observed	180 nM	inhibited the long-term growth	5200 nM	600 nM	only a negligible increase in cleaved PARP and cleaved caspase 3	590 nM	–
O=C(/C=C\n1cnc(-c2cc(C(F)(F)F)cc(C(F)(F)F)c2)n1)NNc1ccccn1 [Compound I-4, (Z)-3-(3-(3,5-bis(trifluoromethyl)phenyl)-1H-1,2,4-triazol-1-yl)-N′-(pyridin-2-yl)acrylohydrazide hydrochloride]	–	–	–	–	–	–	–	–	–	–	–	–	–	–	induced trends of improved novel object recognition

— US12291508B2, “Hydrazide containing nuclear transport modulators and uses thereof” (Karyopharm Therapeutics Inc., priority 2011, dated 2025)
